US8895717B2, “Delivery of siRNA by neutral lipid compositions” (The Board of Regents of the University of Texas System, priority 2005, dated 2014)
d = 2'-deoxy (DNA); r = 2'-OH (RNA)

Tests used:
caspase-3 = assay: Caspase-3 activity in ovarian cancer cells (DEVD-AFC); format: cell-based, human; conditions: taxane-sensitive and taxane-resistant cell lines
Method: Ovarian cancer cells (1×10^6) in culture (six-well plates) were treated with or without docetaxel at the cell line specific IC50 or IC90 concentration for 24 hours. After washing with PBS, cells were lysed in 50 μL of cell lysis buffer provided. Caspase-3, caspase-8, and caspase-9 activities were measured with the appropriate apoptosis detection kit (BD Biosciences/Clontech, Palo Alto, Calif.), using substrate DEVD-AFC for caspase-3, IETD-AFC for caspase-8, and LEHD-AMC for caspase-9.

FAK = FAK down-regulation by siRNA in vitro, Western blot; format: cell-based, human; conditions: for suppression of FAK expression: SKOV3, 72 hours of transfection
Method: siRNAs were synthesized and then purified using high-performance liquid chromatgraphy (Qiagen-Xeragon, Germantown, Md.). FAK siRNA sense: r(CCACCUGGGCCAGUAUUAU)d(TT) (SEQ ID NO:7); antisense: r(AUAAUACUGGCCCAGGUGG)d(TT) (SEQ ID NO:8) and control siRNA sense: r(UUUUCCGAACGUGUCACGU)dTT; (SEQ ID NO:9) antisense: r(ACGUGACACGUUCGGAGAA)dTT (SEQ ID NO:10) bearing no sequence homology with any known human mRNA sequences were dissolved in buffer (100 mmol/L potassium acetate, 30 mmol/L HEPES potassium hydroxide, 2 mmol/L magnesium acetate, pH 7.4) to a final concentration of […], heated to 90° C. for 60 seconds, incubated at 37° C. for 60 minutes, and stored at −20° C. until future use.
Cells were lysed in modified RIPA buffer (50 mM Tris, 150 mM NaCl, 1% triton, 0.5% deoxycholate plus 25 µg/ml leupeptin, 10 µg/ml aprotinin, 2 mM EDTA, and 1 mM sodium orthovanadate (Sigma Chemical Co, St. Louis, Mo.) as previously described (Sood et al., 2004; Sood et al., 2002). A sample was removed from culture dishes by cell scraping and centrifuged at 12,500 rpm for 30 min. The […] protein concentration of the supernatant was determined using a bicinchoninic acid protein assay reagent kit (Pierce, Rockford, Ill.), and whole cell lysates were analyzed by 7.5% SDS-PAGE. Samples were then transferred to nitrocellulose membrane by semi-dry transfer (BioRad Laboratories, Hercules, Calif.). Membranes were blocked with 5% nonfat milk, and incubated with 0.25 μg/mL anti-FAK antibody (Biosource, International Camarillo, Calif.) for 1 h at room temperature. Antibody was detected with 0.167 μg/mL HRP-conjugated anti-mouse secondary antibody (The Jackson Laboratory, Bar Harbor, Me.) and developed with an enhanced chemiluminescence detection kit (Pierce). Equal loading was confirmed by detection of β-actin (0.1 μg/ml, anti-β-actin antibody, Sigma Chemical). Densitometric analysis was performed using the Scion Imaging software (Scion Corporation, Frederick, Md.).
Next, the inventors sought to examine whether FAK silencing using siRNA will sensitize ovarian cancer cells to docetaxel.

HeyA8 cells = assay: In vivo therapy with DOPC-FAK siRNA, HeyA8 model; set-up: species or system nude mice; conditions: for Incidence (%) / No. Nodules: siRNA in DOPC twice weekly, docetaxel 50 μg weekly
Method: siRNA for in vivo delivery was incorporated into the phospholipid 1,2-dioleoyl-sn-glycero-3-phosphatidylcholine (DOPC). DOPC and siRNA were mixed in the presence of excess tertiary-butanol at a ratio of […], as previously described (Landen et al., 2005). Tween-20 was added to the mixture at a ratio of 1:19. The mixture was vortexed, frozen in an acetone/dry ice bath, and lyophilized. Before in vivo administration, this preparation was hydrated with normal (0.9%) saline at a concentration of 15 μg/ml to achieve the desired dose of 150-200 μl per injection. To estimate the quantity of siRNA not taken up by liposomes free siRNA was separated from liposomes by using filter units with a 30,000 nominal molecular weight limit (Millipore Corp, Billerica, Mass.). The liposomal suspension was added to the filters and centrifuged at 5,000 g for 40 min at room temperature. Fractions were collected, the material trapped in the filter was reconstituted with 0.9% saline, and the amount of siRNA in the collected fraction and eluent were measured by spectrophotometry.
To produce tumors, SKOV3ip1, Hey A8-MDR cells (1×10^6 cells/0.2 ml of HBSS) and Hey A8 cells (2.5×10^5 cells/0.2 ml of HBSS) were injected interperitoneally (i.p.) into the mice. For in vivo injections, cells were trypsinized and centrifuged at 1000 rpm for 7 minutes at 4° C., washed twice with PBS and reconstituted in serum-free Hank's balanced salt solution (HBSS, Life Technologies, Carlsbad, Calif.). Only single-cell suspensions with >95% viability, as determined by trypan blue exclusion, were used for the in vivo injections. Mice (n=10 per group) were monitored for adverse effects of therapy and were sacrificed on day 35 (SKOV3ip1) or day 28 (HeyA8 or HeyA8-MDR) or when any of the mice began to appear moribund. Mouse weight, tumor weight, and tumor distribution were recorded. Tissue specimens were snap frozen for lysate preparation, fixed in formalin for paraffin embedding or frozen on OCT compound (Miles, Inc., Elkhart, Ind.) for frozen slide preparation.
Based on the results of preliminary dose-response studies, a series of three separate therapy studies were initiated using the optimal FAK siRNA dosage. Tumor cells were injected i.p. and 7 days later, the mice were randomly assigned to five treatment groups: empty liposome twice weekly, non-specific control […] siRNA (3 μg) twice weekly, control FAK siRNA (3 μg) twice weekly in combination with 50 μg docetaxel weekly, FAK siRNA twice weekly and FAK siRNA (3 μg) twice weekly in addition to 50 μg docetaxel weekly.
The SKOV3ip1 or HeyA8 ovarian cancer cells were implanted into the peritoneal cavity of athymic nude mice for experiments designed to test the therapeutic potential of FAK-targeted inhibition of gene expression. Seven days later, therapy was started according to the following five treatment groups: 1) empty liposomes; 2) non-specific siRNA-DOPC; 3) docetaxel plus non-specific siRNA-DOPC; 4) FAK targeted siRNA-DOPC; and 5) docetaxel plus FAK-targeted siRNA-DOPC. The animals were sacrificed after 4 weeks of therapy and a necropsy was performed. The data for these therapies' effects on SKOV3ip1 and HeyA8 are summarized in FIGS. 6A and 6B, respectively. […] Treatment with FAK siRNA alone or docetaxel plus control siRNA were effective in inhibiting tumor growth (54 to 74%) in both cell lines compared with control (FIG. 13).

With “control siRNA: sense r(UUUUCCGAACGUGUCACGU)dTT, antisense r(ACGUGACACGUUCGGAGAA)dTT, no homology with human mRNA; in vivo in DOPC (sense UUUUCCGAACGUGUCACGUTT; antisense ACGUGACACGUUCGGAGAATT; sugars from the 5' end r19 d2, backbone not given here)” the “caspase-3 activity, siRNA alone” value (caspase-3) was “did not potentiate the activity of caspase-3”, the “FAK expression compared with untreated cells” value (FAK; SKOV3) was “did not significantly affect FAK expression” and the “reduction of tumors compared with empty liposomes” value (HeyA8 cells) was “about 39%”. The “Incidence (%)” value (HeyA8 cells) was 100% and the “No. Nodules” value (HeyA8 cells) was 4.0.

“FAK siRNA: sense r(CCACCUGGGCCAGUAUUAU)d(TT), antisense r(AUAAUACUGGCCCAGGUGG)d(TT); for in vivo delivery incorporated into DOPC (sense CCACCUGGGCCAGUAUUAUTT; antisense AUAAUACUGGCCCAGGUGGTT; sugars from the 5' end r19 d2, backbone not given here)” was tested, and the “caspase-3 activity, siRNA alone” value (caspase-3) was “did not potentiate the activity of caspase-3”, the “suppression of FAK expression” value (FAK) was 90% and the “suppression of FAK expression” value (FAK; listed as FAK-specific siRNA) was greater than 90%. For the same substance, the FAK expression (FAK; after 24 hours of treatment) was “detectable decrease in FAK expression”, the “Incidence (%)” value (HeyA8 cells) was 70% and the “No. Nodules” value (HeyA8 cells) was 1.7.
